The record followed here is patent publication US20160296628A1, “NANOPARTICLE DELIVERY SYSTEMS FOR CYTOLYTIC PEPTIDE PRODRUGS” (Washington University, priority 2015, published 2016).

The test system of data set [1] is RAW 264.7 macrophages. Kind of data set: XTT cytotoxicity assay, RAW 264.7 macrophages. Type of data set: cell-based. Particulars: 3 hours at 37° C., FIGS. 1A-1C. How it is done: (§1) The conjugate was compared to melittin and to melittin coupled only to linker in order to determine toxicity to endothelial cells and macrophages, as well as hemolysis. For assessment of cytotoxicity, 2F2B endothelial cells (CRL-2168; American Type Culture Collection, Manassas, Va.) or RAW 264.7 macrophages (TIB-71; American Type Culture Collection, Manassas, Va.) were plated in a 96-well plate at a concentration of 15,000 cells/well and allowed to attach overnight. The peptide of interest was then added and incubated with the cells for 3 hours at 37° C. Following this incubation, the agent of interest was removed, cells were washed with phosphate-buffered saline, and cell viability was determined by XTT assay (Biotium, Hayward, Calif.). This assay measures the ability of cellular oxidoreductases to reduce the XTT reagent, resulting in a colored product. Briefly, cells were incubated with the activated XTT reagent for 3 hours at 37° C. with shaking at 200 rpm. The absorbance of each well at 450 nm was then measured using a Bio-Rad Model 550 plate reader (Bio-Rad Laboratories, Hercules, Calif.) with reference wavelength 630 nm.
(§2) To assess the impact of proteolytic cleavage on conjugate cytotoxicity and hemolytic activity, we repeated these experiments following cleavage of the conjugate by matrix metalloproteinase-9 (MMP-9). […]
In general terms: Tetrazolium assays rely on reduction of a dye to a coloured formazan, in cell work by metabolically active cells.

Data set [2] has as its system 2F2B endothelial cells. The experiment in a line: XTT cytotoxicity assay, 2F2B endothelial cells. To be noted: 3 hours at 37° C., FIGS. 1A-1C. Type of data set: cell-based. The protocol:
as §1, §2

In data set [3] the test system is red blood cells. The experiment in a line: Hemolysis of red blood cells. Type of data set: cell-based, New Zealand white rabbits. How it is done:
For hemolysis measurements, citrated whole blood was collected from New Zealand white rabbits and separated by centrifugation at 2000 rpm for 10 minutes. Red blood cells were washed five times with Dulbecco's phosphate buffered saline and stored at 4° C. until use. In each assay, the peptide of interest was added to 1×10^7 red blood cells in PBS and incubated at 37° C. for one hour. Afterwards, intact red blood cells were pelleted by centrifugation at 2000 rpm for 5 minutes and absorbance of the supernatant at 450 nm was measured using a Bio-Rad Model 550 plate reader (Bio-Rad Laboratories, Hercules, Calif.) with reference wavelength 630 nm To determine percent lysis, absorbance readings were normalized to lysis with 0.1% Triton™ X-100.
To assess the impact of proteolytic cleavage on conjugate cytotoxicity and hemolytic activity, we repeated these experiments following cleavage of the conjugate by matrix metalloproteinase-9 (MMP-9). Recombinant MMP-9 (R&D Systems, Minneapolis, Minn.) was activated by incubation with 1 mM 4-aminophenylmercuric acetate (APMA; Sigma-Aldrich, St. Louis, Mo.) at 37° C. for 2 hours. Free APMA was removed by dialysis against TCNBZ buffer (150 mM NaCl, 50 mM Tris, 10 mM CaCl2, 10 μM ZnCl2, 0.05% (w/v) Brij-35, pH 7.75) for 2 hours using a Slide-A-Lyzer MINI Dialysis Device, 2K MWCO (Thermo Scientific, Waltham, Mass.) with a dialysate change at 1 hour. […]

For data set [4], the system named is B16F10 melanoma cells. Kind of data set: XTT cytotoxicity assay, B16F10 melanoma cells. Type of data set: cell-based. Particulars: B16F10, MMP-9 added to culture media.
Data set [5] in a line: Peptide loading onto perfluorocarbon nanoparticles. Type of data set: physicochemical. To be noted: 1 mM peptide in phosphate-buffered saline, 4° C., 1 hour. The protocol: Conjugate-loaded nanoparticles were formulated by mixing known amounts of conjugate to non-targeted perfluorocarbon nanoparticles prepared in Example 1A and compared to melittin loading. Both melittin and the conjugate were produced by solid-phase peptide synthesis (melittin: GenScript, Piscataway, N.J.; conjugate: American Peptide Company, Sunnyvale, Calif.). Perfluorocarbon nanoparticles were incubated with 1 mM melittin or conjugate in phosphate-buffered saline at 4° C. for 1 hour. Nanoparticles were then isolated by centrifugation at 5,000 rpm for 15 minutes. The supernatant was removed and nanoparticles were washed three times with phosphate-buffered saline to remove free peptide.

Consider `CC[C@H](C)[C@H](NC(=O)CNC(=O)[C@H](CCC(N)=O)NC(=O)CNC(=O)[C@H](C)NC(=O)[C@@H](NC(=O)CNC(=O)[C@H](CCC(N)=O)NC(=O)[C@@H]1CCCN1C(=O)CNC(=O)[C@H](C)NC(=O)[C@H](CCC(=O)O)NC(=O)[C@@H]1CCCN1C(=O)[C@H](CC(=O)O)NC(=O)[C@H](C)NC(=O)[C@H](CCC(=O)O)NC(=O)[C@H](C)NC(=O)[C@H](CC(=O)O)NC(=O)[C@H](C)NC(=O)[C@H](CCC(=O)O)NC(=O)[C@H](C)NC(=O)[C@H](CCC(=O)O)NC(=O)[C@@H]1CCCN1C(=O)[C@H](CCC(=O)O)NC(=O)[C@@H]1CCCN1C(=O)[C@H](C)NC(=O)[C@@H]1CCCN1C(=O)[C@H](CCC(=O)O)NC(=O)[C@@H]1CCCN1)[C@@H](C)CC)C(=O)NCC(=O)N[C@@H](C)C(=O)N[C@H](C(=O)N[C@@H](CC(C)C)C(=O)N[C@@H](CCCCN)C(=O)N[C@H](C(=O)N[C@@H](CC(C)C)C(=O)N[C@H](C(=O)N[C@H](C(=O)NCC(=O)N[C@@H](CC(C)C)C(=O)N1CCC[C@H]1C(=O)N[C@@H](C)C(=O)N[C@@H](CC(C)C)C(=O)N[C@H](C(=O)N[C@@H](CO)C(=O)N[C@@H](Cc1c[nH]c2ccccc12)C(=O)N[C@H](C(=O)N[C@@H](CCCCN)C(=O)N[C@@H](CCCNC(=N)N)C(=O)N[C@@H](CCCCN)C(=O)N[C@@H](CCCNC(=N)N)C(=O)N[C@@H](CCC(N)=O)C(=O)N[C@@H](CCC(N)=O)C(N)=O)[C@@H](C)CC)[C@@H](C)CC)[C@@H](C)O)[C@@H](C)O)C(C)C)C(C)C` [Pro-P2], for which the “change of cytolytic activity / cytotoxicity relative to melittin” value in data set [1] was “reduced melittin cytotoxicity and hemolytic activity by at least two orders of magnitude”; in data set [2] it was “reduced melittin cytotoxicity and hemolytic activity by at least two orders of magnitude”. Besides, the “hemolytic activity after cleavage by MMP-9” value in data set [3] (conjugate 200 μM cleaved with 20 nM MMP-9, 3 hours at 37° C.) is on record as “restored”. Besides, the “change of cytolytic / hemolytic activity relative to melittin” value in data set [3] (rabbit red blood cells in PBS, 37° C., one hour, FIGS. 1A-1C) was “reduced melittin cytotoxicity and hemolytic activity by at least two orders of magnitude”. In addition, in data set [4], the “cytotoxicity to melanoma cells” value is given as “substantially cytotoxic”.
Turning to `CC[C@H](C)[C@H](NC(=O)CN)C(=O)NCC(=O)N[C@@H](C)C(=O)N[C@H](C(=O)N[C@@H](CC(C)C)C(=O)N[C@@H](CCCCN)C(=O)N[C@H](C(=O)N[C@@H](CC(C)C)C(=O)N[C@H](C(=O)N[C@H](C(=O)NCC(=O)N[C@@H](CC(C)C)C(=O)N1CCC[C@H]1C(=O)N[C@@H](C)C(=O)N[C@@H](CC(C)C)C(=O)N[C@H](C(=O)N[C@@H](CO)C(=O)N[C@@H](Cc1c[nH]c2ccccc12)C(=O)N[C@H](C(=O)N[C@@H](CCCCN)C(=O)N[C@@H](CCCNC(=N)N)C(=O)N[C@@H](CCCCN)C(=O)N[C@@H](CCCNC(=N)N)C(=O)N[C@@H](CCC(N)=O)C(=O)N[C@@H](CCC(N)=O)C(N)=O)[C@@H](C)CC)[C@@H](C)CC)[C@@H](C)O)[C@@H](C)O)C(C)C)C(C)C` [melittin], the “loading, peptides per nanoparticle” value in data set [5] is recorded as “approximately 16,000 peptides per nanoparticle”.
